Article PMC11844072, “Novel 5,6-dichlorobenzimidazole derivatives as dual BRAFWT and BRAFV600E inhibitors: design, synthesis, anti-cancer activity and molecular dynamics simulations” (BMC Chemistry, 2025)

Columns and labels:
786-0 = assay: NCI 60 single concentration growth inhibition; format: cell-based, human; conditions: 786-0, Renal cancer; for GI%: 10 μM; for inhibition at 10 µM: Homo sapiens, read-out: GI%
How it was run: (§1)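 For the single-dose testing, a 10 µM concentration was applied for 48 h. Adherent lines were fixed with cold TCA, stained with SRB and read at 515 nm, and the result was reported as percent growth versus untreated cells.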

A549/ATCC = assay: NCI 60 single concentration growth inhibition; format: cell-based, human; conditions: Non-small cell lung cancer; for GI%: 10 μM; for inhibition at 10 µM: Homo sapiens, read-out: GI%
How it was run: as §1

SK-MEL-28 = assay: NCI 60 single concentration growth inhibition; format: cell-based, human; conditions: SK-MEL-28, Melanoma; for GI%: 10 μM; for inhibition at 10 µM: Homo sapiens, read-out: GI%
How it was run: as §1

PC-3 = assay: NCI 60 single concentration growth inhibition; format: cell-based, human; conditions: PC-3, Prostate cancer; for GI%: 10 μM; for inhibition at 10 µM: Homo sapiens, read-out: GI%
How it was run: as §1

HOP-62 = assay: NCI 60 single concentration growth inhibition; format: cell-based, human; conditions: HOP-62, Non-small cell lung cancer; for GI%: 10 μM; for inhibition at 10 µM: Homo sapiens, read-out: GI%
How it was run: as §1

ACHN = assay: NCI 60 single concentration growth inhibition; format: cell-based, human; conditions: Renal cancer; for GI%: 10 μM; for inhibition at 10 µM: Homo sapiens, read-out: GI%
How it was run: as §1

OVCAR-8 = assay: NCI 60 single concentration growth inhibition; format: cell-based, human; conditions: OVCAR-8, Ovarian cancer; for GI%: 10 μM; for inhibition at 10 µM: Homo sapiens, read-out: GI%
How it was run: as §1

EKVX = assay: NCI 60 single concentration growth inhibition; format: cell-based, human; conditions: Non-small cell lung cancer; for GI%: 10 μM; for inhibition at 10 µM: Homo sapiens, read-out: GI%
How it was run: as §1

SN12C = assay: NCI 60 single concentration growth inhibition; format: cell-based, human; conditions: Renal cancer; for GI%: 10 μM; for inhibition at 10 µM: Homo sapiens, read-out: GI%
How it was run: as §1

MCF7 = assay: NCI 60 single concentration growth inhibition; format: cell-based, human; conditions: MCF7, Breast cancer; for GI%: 10 μM; for inhibition at 10 µM: Homo sapiens, read-out: GI%
How it was run: as §1

NCI-H226 = assay: NCI 60 single concentration growth inhibition; format: cell-based, human; conditions: NCI-H226, Non-small cell lung cancer; for GI%: 10 μM; for inhibition at 10 µM: Homo sapiens, read-out: GI%
How it was run: as §1

SF-539 = assay: NCI 60 single concentration growth inhibition; format: cell-based, human; conditions: SF-539, CNS cancer; for GI%: 10 μM; for inhibition at 10 µM: Homo sapiens, read-out: GI%
How it was run: as §1

SK-OV-3 = assay: NCI 60 single concentration growth inhibition; format: cell-based, human; conditions: SK-OV-3, Ovarian cancer; for GI%: 10 μM; for inhibition at 10 µM: Homo sapiens, read-out: GI%
How it was run: as §1

SR = assay: NCI 60 single concentration growth inhibition; format: cell-based, human; conditions: Leukemia; for GI%: 10 μM; for inhibition at 10 µM: Homo sapiens, read-out: GI%
How it was run: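 Growth measured by sulforhodamine B protein staining (515 nm) after 48 h drug exposure at 37 °C, following 24 h plating in RPMI 1640 with 5% FBS and 2 mM L-glutamine. Compounds first tested at one 10 µM dose, then five-dose series (10-fold or ½ log steps); percent growth relative to time-zero and untreated wells.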

A498 = assay: NCI 60 single concentration growth inhibition; format: cell-based, human; conditions: A498, Renal cancer; for GI%: 10 μM; for inhibition at 10 µM: Homo sapiens, read-out: GI%
How it was run: as §1

SF-295 = assay: NCI 60 single concentration growth inhibition; format: cell-based, human; conditions: SF-295, CNS cancer; for GI%: 10 μM; for inhibition at 10 µM: Homo sapiens, read-out: GI%
How it was run: as §1

[1] = system: NCI 60 cancer cell line panel; assay: NCI 60 single concentration growth inhibition, panel mean; format: cell-based; conditions: Homo sapiens, mean over NCI 60 panel, read-out: Mean GI%
Procedure: The synthesized dichlorobenzimidazoles 10a–p were assayed for their influence on divers cancer cell lines according to the method presented in the Additional file A.
5. Screening of cytotoxic activity against a panel of sixty human tumor cell lines
The selected compounds by NCI were evaluated for their anticancer activity in a two-stage process. First, these compounds were screened against the full NCI 60 cell lines panel at a single high dose of 10 µM. Then, the output from the single dose screen is reported as a mean graph. […]
at five different minimal concentrations.
Assay protocol. The human tumor cell lines of the cancer screening panel are grown in RPMI 1640 medium containing 5% fetal bovine serum and 2 mM L-glutamine. For a typical screening experiment, cells are inoculated into 96 well microtiter plates in 100 µL at plating densities ranging from 5000 to 40,000 cells/well depending on the doubling time of individual cell lines. After cell inoculation, the microtiter plates are incubated at 37 °C, 5% CO 2, 95% air and 100% relative humidity for 24 h prior to addition of the experimental drugs.
After 24 h, two plates of each cell line are fixed in situ with TCA, to represent a measurement of the cell population for each cell line at the time of drug addition (Tz). The experimental drugs are solubilized in dimethyl sulfoxide at 400-fold the desired final maximum test concentration and stored frozen prior to use. At the time of drug addition, an aliquot of frozen concentrate is thawed and diluted to twice the desired final maximum test concentration with complete medium containing 50 µg/mL gentamicin. Additional four, 10-fold or ½ log serial dilutions are made to provide a total of five drug concentrations plus control.
Aliquots of […] of these different drug dilutions are added to the appropriate microtiter wells already containing […] of medium, resulting in the required final drug concentrations.
Following drug addition, the plates are incubated for an additional 48 h at 37 °C, 5% CO 2, 95% air, and 100% relative humidity. For adherent cells, the assay is terminated by the addition of cold TCA.
Cells are fixed in situ by the gentle addition of 50 µL of cold 50% (w/v) TCA (final concentration, 10% TCA) and incubated for 60 min at 4 °C. The supernatant is discarded, and the plates are washed five times with tap water and air dried. Sulforhodamine B (SRB) solution ([…]) at 0.4% (w/v) in 1% acetic acid is added to each well, and plates are incubated for 10 min at room temperature. After staining, unbound dye is removed by washing five times with 1% acetic acid and the plates are air dried. Bound stain is subsequently solubilized with 10 mM trizma base, and the absorbance is read on an automated plate reader at a wavelength of 515 nm. For suspension cells, the methodology is […]
the same except that the assay is terminated by fixing settled cells at the bottom of the wells by gently adding 50 µl of 80% TCA (final concentration, 16% TCA). Using the seven absorbance measurements [time zero, (Tz), control growth, (C), and test growth in the presence of drug at the five concentration levels (Ti)], the percentage growth is calculated at each of the drug concentrations […]
Percentage growth inhibition is calculated as: [(Ti Tz)/(C–Tz)] x 100 for concentrations for which Ti>/=Tz and [(Ti-Tz)/Tz] x 100 for concentrations for which Ti < Tz.
Three dose response parameters are calculated for each experimental agent. Growth […]
concentration resulting in a 50% reduction in the net protein increase (as measured by SRB staining) in control cells during the drug incubation. The drug concentration resulting in total growth inhibition (TGI) is calculated from Ti = Tz. […]
reduction in the measured protein at the end of the drug treatment as compared to that at the beginning) indicating a net loss of cells following treatment is calculated from [(Ti–Tz)/Tz] x 100 =
_50. Values are calculated for each of these three parameters if the level of activity is reached; […]

Molecule	GI% (786-0)	GI% (A549/ATCC)	GI% (SK-MEL-28)	GI% (PC-3)	inhibition at 10 µM [1]	inhibition at 10 µM (786-0)	inhibition at 10 µM (A549/ATCC)	inhibition at 10 µM (SK-MEL-28)	inhibition at 10 µM (PC-3)	inhibition at 10 µM (HOP-62)	inhibition at 10 µM (ACHN)	inhibition at 10 µM (OVCAR-8)	inhibition at 10 µM (EKVX)	inhibition at 10 µM (SN12C)	inhibition at 10 µM (MCF7)	inhibition at 10 µM (NCI-H226)	inhibition at 10 µM (SF-539)	inhibition at 10 µM (SK-OV-3)	inhibition at 10 µM (A498)	inhibition at 10 µM (SF-295)	further results
2-(4-((2-(2-(5,6-Dichloro-2-(4-methoxyphenyl)-1H-benzo[d]imidazol-1-yl)acetyl)hydrazono)methyl) -2-methoxyphenoxy)acetic acid [Compound 10m]	– (GI% < 5%)	– (GI% < 5%)	– (GI% < 5%)	– (GI% < 5%)																	GI% (HOP-62): – (GI% < 5%); GI% (ACHN): – (GI% < 5%); GI% (OVCAR-8): – (GI% < 5%); GI% (EKVX): – (GI% < 5%); GI% (SN12C): 5.24%; GI% (MCF7): 9.09%; GI% (NCI-H226): 11.67%; GI% (SF-539): – (GI% < 5%); GI% (SK-OV-3): – (GI% < 5%); GI% (SR): – (GI% < 5%); GI% (A498): – (GI% < 5%); GI% (SF-295): – (GI% < 5%)
2-(5-((2-(2-(5,6-Dichloro-2-(4-methoxyphenyl)-1H-benzo[d]imidazol-1-yl)acetyl)hydrazono)methyl)-2-methoxyphenoxy)acetic acid [Compound 10n]	– (GI% < 5%)	– (GI% < 5%)	– (GI% < 5%)	10.81%																	GI% (HOP-62): – (GI% < 5%); GI% (ACHN): – (GI% < 5%); GI% (OVCAR-8): – (GI% < 5%); GI% (EKVX): – (GI% < 5%); GI% (SN12C): 5.05%; GI% (MCF7): 14.21%; GI% (NCI-H226): 10.07%; GI% (SF-539): – (GI% < 5%); GI% (SK-OV-3): – (GI% < 5%); GI% (SR): 9.65%; GI% (A498): – (GI% < 5%); GI% (SF-295): – (GI% < 5%)
3-(4-((2-(2-(5,6-Dichloro-2-(4-methoxyphenyl)-1H-benzo[d]imidazol-1-yl)acetyl)hydrazono)methyl)phenoxy)propanoic acid [Compound 10i]	5.33%	– (GI% < 5%)	– (GI% < 5%)	19.27%																	GI% (HOP-62): – (GI% < 5%); GI% (ACHN): 5.11%; GI% (OVCAR-8): – (GI% < 5%); GI% (EKVX): 20.53%; GI% (SN12C): – (GI% < 5%); GI% (MCF7): 28.47%; GI% (NCI-H226): 23.02%; GI% (SF-539): – (GI% < 5%); GI% (SK-OV-3): 6.27%; GI% (A498): – (GI% < 5%); GI% (SF-295): 15.06%
COc1ccc(-c2nc3cc(Cl)c(Cl)cc3n2CC(=O)NN=Cc2cccc(O)c2)cc1 [Compound 10a, 2-(5,6-Dichloro-2-(4-methoxyphenyl)-1H-benzo[d]imidazol-1-yl)-N'-(3-hydroxybenzylidene)acetohydrazide]					46.9%	28.6%	62.5%	39.3%	57.8%	24.1%	40%	29.5%	76.6%	31.3%	80.6%	43.7%	36.5%	35.5%	48.9%	67.8%	inhibition at 10 µM (SR): 42%
COc1ccc(-c2nc3cc(Cl)c(Cl)cc3n2CC(=O)NN=Cc2ccc(O)cc2)cc1 [Compound 10b, 2-(5,6-Dichloro-2-(4-methoxyphenyl)-1H-benzo[d]imidazol-1-yl)-N'-(4-hydroxybenzylidene)acetohydrazide]					38.5%	34.8%	57.2%	26.4%	40.7%	19.3%	33.4%	28%	52.6%	18%	74.2%	35.5%	32.5%	24.6%	25.9%	34%	inhibition at 10 µM (SR): 64.7%
COc1ccc(-c2nc3cc(Cl)c(Cl)cc3n2CC(=O)NN=Cc2cccc(OC)c2)cc1 [Compound 10c, 2-(5,6-Dichloro-2-(4-methoxyphenyl)-1H-benzo[d]imidazol-1-yl)-N'-(3-methoxybenzylidene)acetohydrazide]					28.1%	19.2%	36.1%	20.5%	29.5%	6.68%	20.4%	13.5%	30.4%	9.21%	56.6%	17.1%	24.4%	10.1%	22.7%	22.3%	inhibition at 10 µM (SR): 48.4%
CCOC(=O)C(C)Oc1ccc(C=NNC(=O)Cn2c(-c3ccc(OC)cc3)nc3cc(Cl)c(Cl)cc32)cc1 (stereo not drawn) [Compound 10j, Ethyl-2-(4-((2-(2-(5,6-dichloro-2-(4-methoxyphenyl)-1H-benzo[d]imidazol-1-yl)acetyl) hydrazono)methyl)phenoxy)propanoate]					18.4%	11.3%	< 5%	< 5%	38.5%	< 5%	18%	20.7%	21.7%	51.9%	39%	7.33%	< 5%	5.5%	< 5%	21%	
